Test results taken from ChEMBL document CHEMBL1795331, “Synthesis and biological activity of optically active NCL-1, a lysine-specific demethylase 1 selective inhibitor” (Bioorg Med Chem, 2011).

Key:
HeLa = experiment: cells; conditions: Homo sapiens, 48 h
Description: Growth inhibition of human HeLa cells after 48 hrs by MTT assay

SH-SY5Y = experiment: cells; conditions: Homo sapiens, 48 h
Description: Growth inhibition of human SH-SY5Y cells after 48 hrs by MTT assay

in vitro = conditions: human, HEK293 cells
Description: Growth inhibition of human HEK293 cells after 48 hrs by MTT assay

Row | GI50 (HeLa) | GI50 (SH-SY5Y) | GI50 at 48 h (in vitro) | Compound
1 | 20 µM | 9 µM | 17 µM | N[C@H]1C[C@@H]1c1cccc(OCC[C@H](NC(=O)c2ccccc2)C(=O)NCc2ccccc2)c1
2 | 74 µM | 9 µM | 25 µM | N[C@@H]1C[C@H]1c1cccc(OCC[C@H](NC(=O)c2ccccc2)C(=O)NCc2ccccc2)c1
